From patent publication US20250090516A1, “DRUG FOR TREATING AF[…] NOVEL CORONAVIRUS INFECTION” (THE JIKEI UNIVERSITY, priority 2022, published 2025)

Key:
Type in all cases: in vivo, C57BL/6 mice
[1] = test system: gene expression of zinc finger protein 36 (Zfp36) in the brains of S1 mice; experiment: RT-qPCR of Zfp36 in brains of S1 mice after PNU282987; details: PNU282987 400 nmol/mouse intracerebroventricularly; cDNA of Example 10; FIG. 15
Protocol: Therefore, to the S1 mice and the control mice, on the 7th day after nasal administration of S1/Adv or vector/Adv, PNU282987, which is an agonist specific to the a7 nicotinic acetylcholine receptor, was administered intracerebroventricularly at a dose of 400 nmol/mouse, and the therapeutic effect on brain inflammation in the S1 mice was examined.
One hour after the intracerebroventricular administration of PNU282987, the brains excluding the olfactory bulbs were collected, and RNA was purified with the RNeasy Mini Kit (QIAGEN). The purified RNA was used as a template to synthesize cDNA with the PrimeScript RT reagent Kit (Takara-Bio Inc.). Using the synthesized cDNA, the gene expression of interleukin-1β (IL-1β) and interleukin-6 (IL-6) was analyzed by RT-qPCR. The measurement results of 18S rRNA were used for normalization.
To elucidate the molecular mechanism of the therapeutic effect of PNU282987 on brain inflammation in Example 10, the impact of S1 and […] on the gene expression level of zinc finger protein 36 (Zfp36), which is a host protein with anti-inflammatory effects, was examined. Specifically, using the synthesized cDNA in Example 10, the gene expression of Zfp36 was analyzed by RT-qPCR. The measurement results of 18S rRNA were used for normalization.

[2] = test system: gene expression of IL-1β and IL-6 in the brains of S1 mice; experiment: RT-qPCR of inflammatory cytokine genes in brains of S1 mice after intracerebroventricular PNU282987; details: PNU282987 400 nmol/mouse intracerebroventricularly on 7th day; brains collected one hour later; FIG. 14
[3] = test system: S1 mice (COVID-19 sequela model animals); experiment: Tail suspension test (depressive disorder-like behavior) after donepezil; details: donepezil 4.0 mg/kg/day via drinking water; 6th day after nasal S1/Adv; 10 minutes suspension; without donepezil, S1 mice significantly increased; FIG. 12
[4] = test system: S1 mice (COVID-19 sequela model animals); experiment: 10% weight-loaded forced swimming test (fatigue behavioral test) after donepezil; details: donepezil 4.0 mg/kg/day via drinking water; 6th day after nasal S1/Adv; without donepezil, S1 mice significantly shorter; FIG. 11

O=C(N[C@H]1CN2CCC1CC2)c1ccc(Cl)cc1 [PNU282987]
decrease in ZFP36 gene expression in S1 mice [1]: improved | increased expression level of IL-1β gene in the brain of S1 mice [2]: suppressed | increased expression level of IL-6 gene in the brain of S1 mice [2]: suppressed

COc1cc2c(cc1OC)C(=O)C(CC1CCN(Cc3ccccc3)CC1)C2.Cl (centres unmarked) [donepezil, 2-[(1-benzyl-4-piperidyl)methyl]-5,6-dimethoxyindan-1-one hydrochloride]
immobility time in the tail suspension test, S1 mice vs control mice [3]: significantly decreased | swimming time, S1 mice vs control mice [4]: no difference was observed
